Laboratory results published in patent US20160318844A1, “PROSTACYCLIN COMPOUNDS, COMPOSITIONS AND METHODS OF USE THEREOF” (Insmed Incorporated, priority 2015, published 2016).
Entries after “also recorded” stand apart in the source; their conditions may differ. Read-outs that look alike come from different tables or passages of the source. One block for each molecule: values may come before it.

Legend:
esterase = assay: Esterase mediated conversion of treprostinil compounds to treprostinil; format: in vitro ADME; conditions: esterase at 37° C., up to 1 hr
Procedure: A set of studies was conducted to determine the conversion kinetics to treprostinil of linear treprostinil compounds versus various branched treprostinil compounds. 0.4 mM of linear C8-TR or branched treprostinil compounds 2-dimethyl-1-propanyl-TR, 3,3-dimethyl-1-butanyl-TR, 2-ethyl-1-butanyl-TR, 5-nonanyl-TR, or 3-pentanyl-TR (see below for structures) were incubated with 0.2 U esterase at 37° C. for 1 hour, and the conversion (% of total) was calculated at 0.25, 0.5, 0.75, or 1 hour incubation time. • C8-TR (i.e., the compound of Formula (A) wherein R2=
The conversion is relative to the C8-TR compound and conversion was measured at 1 hr. post esterase incubation. • C8-TR (i.e., the compound of Formula (A) wherein R2=
Conversion was measured at 1 hr. post esterase incubation. • 4C7-TR (i.e., the compound of Formula (A) wherein R2=

physchem = conditions: organic solvent or mixture, thermodynamic from solid
Procedure: Selected treprostinil derivatives were evaluated for the use in a metered dose inhaler (MDI).
5 mg of each treprostinil compound was added in a glass bottle. Specific amount of ethanol was added by weight. An MDI valve was crimped to each bottle, and HFA propellant added through the valve to the total volume of 5 mL. Compounds were allowed to dissolve for 24 hours at room temperature. The formulations were assessed visually for solubility. The goal was to estimate the minimum ethanol concentration required to solubilize each compound in propellant.
Soluble samples presented as clear and colorless solutions. […] Non-soluble samples had white precipitate or crystals formed. Ethanol was added as a solubility aid.

EP2 prostanoid receptor = target: T1, EP2 prostanoid receptor (Homo sapiens, UniProt P43116); assay: GloSensor cAMP assay in CHO-K1 cells co-transfected with the EP2 receptor; format: cell-based
T1 construct: host or cells: CHO-K1
Source text: cAMP is a second messenger involved in signal transduction of G-protein coupled receptors (GPCRs) acting through Gα-s and Gα-i proteins. Because the treprostinil receptor is a GPCR, the assay provides an indication of whether the respective prostacyclin compound (or metabolite thereof) binds its receptor and activates the GPCR cell signaling cascade. The GloSensorTM assay harnesses a genetically modified form of firefly luciferase into which a cAMP-binding protein moiety has been inserted. Upon binding of cAMP, a conformational change is induced leading to increased light output. The EP2 prostanoid receptor was cotransfected with the GioSensorm plasmid (Promega) into CHO-K cells as follows. CHO-K cells were harvested when the monoloayer was at 50-90% confluence. First, cells were washed with 5 mL PBS. […] The media was aspirated, and the cell pellet was resuspended in 10 mL of growth media. Cell number was determined using a hemacytometer. […] For small scale transfections of up to 20 wells, the pGLoSensor-22F cAMP plasmid (Promega, Cat #: E2301) (2 apg): […] Cat #: […] P2271) ratio was diluted to a final concentration of 12.6 ng/μL (total plasmid) in Opti-MEM I reduced-serum medium (Life Technologies, Cat #: 1985062). Next, 6 μL of FuGENE HD transfection reagent (Promega, Cat #: E2311) was added to 160 μL of diluted plasmid and mixed carefully by gentle pipetting. The complex was incubated at room temperature for 0 to 10 minutes, and then 8 μL of the complex was added per well of a 96 well white assay plate (Costar, Cat #: 3917) and gently mixed without disturbing the cell monolayer. […] Following incubation, cells were treated and analyzed. For larger scale transfections, the aforementioned steps were scaled up accordingly, and cells were frozen following the last incubation. In order to prepare frozen transfected CHO-K cells, the media was aspirated from culture flasks and cells were rinsed with 5 mL PBS. […] Cell number was determined using a hemacytometer. The media was aspirated, and the cell pellet was resuspended in freezing media (Millipore, cat #: S-002-SF) at 2.5×10^4 cells/vial. Transfected cells were incubated overnight at -80° C. before transfer to liquid nitrogen for long term storage. […] SH30071.03)). […] In preparation for cAMP measurement, the cells were equilibrated with the GloSensor cAMP reagent prior to treatment. For equilibration, the medium was carefully removed from the individual well. Next, 100 μL of equilibration medium ([…] of Glosensor Reagent stock solution (Promega, Cat #: E291), 10% FBS (Hydone, Cat #: SH30071.03) and 88% CO2 independent medium (Life Technologies, Cat #: 18045088)) was added per well of the 96-well plate, and added to the side of each well. The plate was then incubated for 2 hours at room temperature. A first pre-read measurement was taken using a microplate reader (MicroLumat Plus). Plates were incubated for an additional 10 minutes at room temperature, followed by a second pre-read measurement. […] Following treatment, each plate was read every 5 minutes for the duration of the assay using a microplate reader (MicroLumat Plus). In order to determine the fold change in cAMP relative to the control, the transfection efficiency was first determined by dividing the second pre-read measurement by the average of the corresponding pre-read measurements. Next, the normalized relative light units (RLUs) of the samples were determined by dividing the plate read measurement by the transfection efficiency. The fold change in cAMP relative to the control was then determined by dividing the normalized RLU of the samples by the normalized RLU of the control. The cAMP assay was validated using free treprostinil. […] Luminescence was then measured at room temperature. […] Nebulizer Aeroneb Pro (Aerogen) was used to nebulize treprostinil derivative compositions. Desired volume of the formulation (usually 3 mL) was loaded to the mesh head of the nebulizer. […]

NR8383 cells = assay: NR8383 cell proliferation assay; format: cell-based, rat; conditions: Table 9, unformulated alkyl esters, (0.195 μM-25 μM), 72 hour incubation
Procedure: Rat alveolar NR8383 cells were harvested when the monolayer was 50-90% confluent (use passage 5-11). Because the NR8383 cells include both adherent and non-adherent cells, media was transferred to a 50 mL Falcon tube. To obtain the cells remaining in the flask, 2 mL of plain media was added, and the remaining cells were scraped out of the 75 cm^2 flask with a cell scraper and added to the 50 mL tube. […] SH30071.03)+1×Pen-Strep (Life Technologies, cat #: 15410-122)). Cell number was determined using a hemacytometer. […] Measurements and calculations were made as described above for the CHO-K1 cells. Rat alveolar NR8383 cells were challenged with the same treprostinil derivative compositions: […]

CHO-K1 cells = assay: CHO-K1 cell proliferation assay (Presto Blue); conditions: Table 9, unformulated alkyl esters, (0.195 μM-25 μM), 48 hour incubation
Procedure: CHO-K1 cells were harvested when the cell monolayer was 50-90% confluent (use passage 4-11). Media was aspirated out of the flask, and cells were rinsed with 2 mL of F12 media. Next, 1 mL of pre-warmed (37° C.) 0.25% trypsin-EDTA (Life Technologies, Cat#: 25300054) was added, and cells were dislodged from the flask by tapping it on the side. Complete growth media (F12 (Life Technologies, Cat #: 31765092)+10% FBS (Hyclone, Cat #: SH30071.03)+1× Pen-Strep (Life Technologies, cat #15140-122) was then added at a volume of 10 mL. Cells were centrifuged at 250×g for 5 minutes at room temperature, and the media was aspirated. The cell pellet was resuspended in 10 mL complete growth media. Cell number was determined using a hemacytometer. Cells were then seeded at 2000 cells per well of a 96-well plate in 100 μL of complete growth media. The plate was incubated overnight at 37° C. and 5% CO2 in a water-jacketed incubator.
The next day, 80 μL of fresh complete media was added to each well, and CHO-K1 cells were challenged with treprostinil compound and composition treatments. The working solutions were prepared at 10× concentration, and following 2 fold serial dilutions, 20 μL aliquots were added per well to arrive at a final 1× concentration. Following a 48 hour incubation at 37° C. and 5% CO2 in a water-jacketed incubator, the inhibitory effect on cell proliferation was determined. Plates were analyzed using 20 μL of Presto Blue reagent (Life Technologies, cat #: A13262) per well. The reagent was mixed, and plates were incubated for 1 hour at 37° C. and 5% CO2 in a waterjacketed incubator. Plates were read using either a CytoFluor Series 4000 (PerSeptive BioSystems) or Synergy Neo microplate reader (BioTek) with emission λ: 590 nm and excitation λ: 560 nm. […]
CHO-K1 cells were challenged with treprostinil alkyl esters, i.e., TR compounds of Formula (A), having the following R2 groups: […]
C2, C3, C4, C5, C6, C8, C10 or C12 straight chain alkyl, at dosages ranging from 0.098 μM to 25 μM. Following a 48 hour incubation period, the inhibitory effect on cell proliferation was determined.
Following a 72 hour incubation period, the inhibitory effect on cell proliferation was determined. Following a 48 hour incubation period, the inhibitory effect on cell proliferation was determined. […]

T1 sequence (P43116 whole entry): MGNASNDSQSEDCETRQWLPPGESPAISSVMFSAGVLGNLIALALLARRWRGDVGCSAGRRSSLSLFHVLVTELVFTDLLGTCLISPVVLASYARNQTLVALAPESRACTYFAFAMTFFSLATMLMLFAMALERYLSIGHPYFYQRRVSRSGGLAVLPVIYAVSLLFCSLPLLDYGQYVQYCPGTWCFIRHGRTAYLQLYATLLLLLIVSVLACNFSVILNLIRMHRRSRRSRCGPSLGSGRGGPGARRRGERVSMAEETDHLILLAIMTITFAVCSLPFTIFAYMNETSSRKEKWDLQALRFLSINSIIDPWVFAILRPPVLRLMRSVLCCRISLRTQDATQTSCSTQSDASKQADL

Structure (SMILES): CCCCCC[C@@H](C)OC(=O)COc1cccc2c1C[C@H]1C[C@@H](O)[C@H](CC[C@@H](O)CCCCC)[C@H]1C2 [(R)-2C8-TR]
conversion rate compared with other compound (esterase): no significant difference

Structure (SMILES): CCCCCC[C@H](C)OC(=O)COc1cccc2c1C[C@H]1C[C@@H](O)[C@H](CC[C@@H](O)CCCCC)[C@H]1C2 [(S)-2C8-TR]
conversion rate compared with other compound (esterase): no significant difference

Structure (SMILES): CCCCC[C@H](O)CC[C@@H]1[C@H]2Cc3cccc(OCC(=O)OC(CCC)CCC)c3C[C@H]2C[C@H]1O [Compound 4C7-TR]
conversion rate compared with other compound (esterase): slower conversion rate than the linear compound C-TR

Structure (SMILES): CCCCC[C@H](O)CC[C@@H]1[C@H]2Cc3cccc(OCC(=O)OC(CCC)CCCC)c3C[C@H]2C[C@H]1O (stereo partly shown) [Compound 4C8-TR]
conversion rate compared with other compound (esterase): slower conversion rate than the linear compound C-TR; also recorded: slower conversion rate than the symmetrical compounds (4C7-TR and 5C9-TR)

solubility at 24 h (physchem; Solubility in HFA-134a with added ethanol): < 1000 µg/mL
solubility at 24 h (physchem; Solubility in HFA-227 with added ethanol): > 1000 µg/mL
conversion rate compared with other compound (esterase; listed as 5-nonanyl-TR): slower conversion rate than linear C8-TR
change of potency with incubation time (EP2 prostanoid receptor; cAMP dose response curves, 0.5 hr to 8 hr): increases with incubation time
ranking of activity (EP2 prostanoid receptor; kinetic profile at 10 μM and 5 μM): C12-TR>C14-TR>5-nonanyl-TR>C16-TR
Structure (SMILES): CCCCC[C@H](O)CC[C@@H]1[C@H]2Cc3cccc(OCC(=O)OC(CCCC)CCCC)c3C[C@H]2C[C@H]1O [Compound 5C9-TR, 5-nonanyl-treprostinil]
conversion rate compared with other compound (esterase): slower conversion rate than the linear compound C-TR

EC50 (EP2 prostanoid receptor; 4.5 hr incubation time, read-out: EC50 (μM) 4.5 hr): 1.84 µM
EC50 (EP2 prostanoid receptor; 6.0 hr incubation time, read-out: EC50 (μM) 6.0 hr): 1.68 µM
EC50 (EP2 prostanoid receptor; 8.0 hr incubation time, read-out: EC50 (μM) 8.0 hr): 1.65 µM
EC50 (EP2 prostanoid receptor; EC50 (μM) 0.5 hr, 0.5 hr incubation time): 2.43 µM
EC50 (EP2 prostanoid receptor; EC50 (μM) 1.0 hr, 1.0 hr incubation time): 2.27 µM
EC50 (EP2 prostanoid receptor; EC50 (μM) 2.0 hr, 2.0 hr incubation time): 1.75 µM
EC50 (EP2 prostanoid receptor; EC50 (μM) 3.0 hr, 3.0 hr incubation time): 1.81 µM
EC50 (EP2 prostanoid receptor; EC50 (μM) 4.0 hr, 4.0 hr incubation time): 1.88 µM
EC50 (EP2 prostanoid receptor; EC50 (μM) 5.0 hr, 5.0 hr incubation time): 1.91 µM
EC50 (EP2 prostanoid receptor; EC50 (μM) 7.0 hr, 7.0 hr incubation time): 1.71 µM
Structure (SMILES): CCCCC[C@H](O)CC[C@@H]1[C@H]2Cc3cccc(OCC(=O)OCC)c3C[C@H]2C[C@H]1O [Compound C2-TR, treprostinil ethyl ester]
Effect on cell proliferation, NR8383 Cells: detectable cell inhibition (NR8383 cells): No detectable cell inhibition
Effect on cell proliferation, CHO-K1 Cells: detectable cell inhibition (CHO-K1 cells): No detectable cell inhibition

Structure (SMILES): CCCCC[C@H](O)CC[C@@H]1[C@H]2Cc3cccc(OCC(=O)OCCC)c3C[C@H]2C[C@H]1O [Compound C3-TR]
Effect on cell proliferation, NR8383 Cells: detectable cell inhibition (NR8383 cells): No detectable cell inhibition
Effect on cell proliferation, CHO-K1 Cells: detectable cell inhibition (CHO-K1 cells): No detectable cell inhibition

Structure (SMILES): CCCCC[C@H](O)CC[C@@H]1[C@H]2Cc3cccc(OCC(=O)OCCCC)c3C[C@H]2C[C@H]1O [Compound C4-TR]
Effect on cell proliferation, NR8383 Cells: detectable cell inhibition (NR8383 cells): No detectable cell inhibition
Effect on cell proliferation, CHO-K1 Cells: detectable cell inhibition (CHO-K1 cells): No detectable cell inhibition

Structure (SMILES): CCCCCCOC(=O)COc1cccc2c1C[C@H]1C[C@@H](O)[C@H](CC[C@@H](O)CCCCC)[C@H]1C2 [Compound C6-TR]
Effect on cell proliferation, NR8383 Cells: detectable cell inhibition (NR8383 cells): No detectable cell inhibition
Effect on cell proliferation, CHO-K1 Cells: detectable cell inhibition (CHO-K1 cells): No detectable cell inhibition
